Measured values published in ChEMBL document CHEMBL1201862, “PubChem BioAssay data set” (2004).
Calls of active or inactive are those of the source.

Key:
[1] = target: Cytochrome P450 2D6 (Homo sapiens, UniProt P10635);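 further: CYP2D6 member of a cytochrome P450 panel assay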
[2] = target: Cytochrome P450 2C19 (Homo sapiens, UniProt P33261); experiment: Cytochrome panel assay with activity outcomes. Panel member name: p450-cyp2c19 Compounds with AC50 equal or less than 10 uM are considered active; type: functional
[3] = NIH-3T3 fibroblast cytotoxicity, dose response, cytotoxicity control, cell-based, fluorescence, Alamar Blue, secondary assay (AID 2327); type: functional;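 further: NIH-3T3 mouse fibroblasts cultured with fluconazole at 8 µg/mL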
[4] = tested on: BJ; experiment: cytotoxicity toward BJ-TERT fibroblasts, dose response, cell-based, RAS-independent, luminescence (AID 1933); type: functional; conditions: Homo sapiens
[5] = tested on: BJ; experiment: cells; type: functional, cell-based; conditions: Homo sapiens
[6] = C. albicans growth with fluconazole, confirmation, fluorescence, retest (AID 2467); type: functional, cell-based
[7] = target: T1, Serine/threonine-protein phosphatase (Candida dubliniensis (strain CD36 / CBS 7987 / NCPF 3949 / NRRLY-17841) (Yeast), UniProt B9W6M3); experiment: calcineurin pathway inhibitors in yeast reporter, dose response, S. cerevisiae, CDRE-lacZ, luminescence, secondary (AID 2388); type: functional, cell-based;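 further: yeast reporter cells carrying a calcineurin-responsive lacZ construct stimulated with calcium chloride; luminescent beta-galactosidase reporter signal in whole cells rather than isolated phosphatase activity; potency for inhibition where a drop in reporter signal means calcineurin blockade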
T1 sequence (B9W6M3 whole entry): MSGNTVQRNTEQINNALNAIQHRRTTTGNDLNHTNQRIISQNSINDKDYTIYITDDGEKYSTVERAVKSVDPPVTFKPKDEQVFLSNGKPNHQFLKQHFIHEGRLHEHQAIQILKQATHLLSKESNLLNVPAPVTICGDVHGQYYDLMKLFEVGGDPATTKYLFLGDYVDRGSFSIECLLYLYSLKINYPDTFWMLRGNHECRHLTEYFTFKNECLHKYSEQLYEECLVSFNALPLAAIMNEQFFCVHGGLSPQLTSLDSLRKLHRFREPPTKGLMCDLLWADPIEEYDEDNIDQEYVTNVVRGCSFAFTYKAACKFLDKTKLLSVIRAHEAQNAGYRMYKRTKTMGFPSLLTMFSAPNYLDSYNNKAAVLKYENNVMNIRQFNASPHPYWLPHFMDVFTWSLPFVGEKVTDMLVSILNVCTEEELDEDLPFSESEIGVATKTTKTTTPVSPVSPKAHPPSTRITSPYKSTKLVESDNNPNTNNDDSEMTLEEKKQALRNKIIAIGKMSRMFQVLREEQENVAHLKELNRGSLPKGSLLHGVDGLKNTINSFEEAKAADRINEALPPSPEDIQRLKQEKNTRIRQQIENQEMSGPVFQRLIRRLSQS

[8] = tested on: BJ; experiment: cytotoxicity toward BJ-TERT-LT-ST fibroblasts, dose response, cell-based, RAS-independent, luminescence (AID 1935); type: functional; conditions: Homo sapiens;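 further: BJ fibroblasts immortalized with TERT plus LT and ST oncogenes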
[9] = cytotoxicity toward DRD oncogenic fibroblasts, dose response, cell-based, non-viral oncogenic, luminescence (AID 1934); type: functional; conditions: Homo sapiens
[10] = target: Nonstructural protein 1 (Influenza A virus, UniProt Q194T2); type: functional, Influenza A virus (A/California/07/2009(H1N1))
[11] = target: Heat shock protein HSP 90-alpha (Homo sapiens, UniProt P07900); type: functional, organism-based
[12] = tested on: BJ; experiment: cytotoxicity toward Ras-transformed BJeLR fibroblasts, dose response, cell-based, alamar blue fluorescence, cherrypicked samples (AID 2631); type: functional; conditions: Homo sapiens;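 further: confirmatory dose-response assay in RAS-dependent BJ fibroblasts engineered with TERT, LT and ST, with cytotoxicity read by fluorescence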
[13] = target: ATP-dependent molecular chaperone HSP82 (Candida albicans (strain WO-1) (Yeast), UniProt C4YTQ8); experiment: loss of DOC-induced GRE-beta-galactosidase reporter signal, dose response, Hsp90 inhibitor project, S. cerevisiae, luminescence (AID 2400); type: functional, cell-based;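 further: beta-galactosidase luminescence from glucocorticoid response element reporter as proxy for Hsp90 function; inhibitor potency where signal loss means Hsp90 inhibition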
[14] = target: T2, Microphthalmia-associated transcription factor (Homo sapiens, UniProt O75030); experiment: TRPM1 promoter luciferase signal decrease, dose response, MITF inhibitor project, cell-based, SK-MEL-5, cherry-picked, set 3 (AID 493073); type: functional
T2 sequence (O75030 whole entry): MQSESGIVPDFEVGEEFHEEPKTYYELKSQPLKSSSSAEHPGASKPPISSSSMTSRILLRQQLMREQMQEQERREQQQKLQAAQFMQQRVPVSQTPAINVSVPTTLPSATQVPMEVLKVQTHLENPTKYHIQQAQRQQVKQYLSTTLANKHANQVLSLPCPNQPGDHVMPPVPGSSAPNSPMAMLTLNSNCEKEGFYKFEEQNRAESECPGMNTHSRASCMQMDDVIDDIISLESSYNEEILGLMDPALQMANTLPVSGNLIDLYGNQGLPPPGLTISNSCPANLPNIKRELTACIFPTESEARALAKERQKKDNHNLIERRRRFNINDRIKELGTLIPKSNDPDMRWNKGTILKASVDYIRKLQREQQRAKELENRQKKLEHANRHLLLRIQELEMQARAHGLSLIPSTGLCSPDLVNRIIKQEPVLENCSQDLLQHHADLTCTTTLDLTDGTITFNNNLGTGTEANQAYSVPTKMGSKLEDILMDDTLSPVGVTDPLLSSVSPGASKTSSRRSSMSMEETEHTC

[15] = target: T3, Heat shock factor protein 1 (Mus musculus, UniProt P38532); experiment: HSF1 potentiators in luciferase reporter cells, confirmation, cell-based, NIH3T3, luminescence, dose retest (AID 435004); type: functional;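 further: stress induced by proteasome inhibitor MG132 added 30 min after compound; luciferase reporter driven by HSF1 response element in NIH3T3 cells; actives raise luminescence as potentiators of the MG132 stress response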
T3 sequence (P38532 whole entry): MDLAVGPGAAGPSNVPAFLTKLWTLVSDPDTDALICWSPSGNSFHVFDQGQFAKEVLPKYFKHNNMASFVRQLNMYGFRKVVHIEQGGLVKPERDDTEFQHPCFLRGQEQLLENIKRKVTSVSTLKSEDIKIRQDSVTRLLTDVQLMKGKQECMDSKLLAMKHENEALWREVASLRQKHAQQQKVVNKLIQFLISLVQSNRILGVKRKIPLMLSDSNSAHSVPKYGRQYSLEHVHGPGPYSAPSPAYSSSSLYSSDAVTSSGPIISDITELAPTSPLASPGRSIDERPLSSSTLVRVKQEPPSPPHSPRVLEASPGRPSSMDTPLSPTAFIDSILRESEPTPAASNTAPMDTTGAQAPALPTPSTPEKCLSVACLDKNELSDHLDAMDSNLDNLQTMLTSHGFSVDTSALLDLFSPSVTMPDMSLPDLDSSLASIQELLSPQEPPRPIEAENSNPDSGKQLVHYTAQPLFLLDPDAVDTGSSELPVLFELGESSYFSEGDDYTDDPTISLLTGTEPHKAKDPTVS

[16] = target: T4, Sentrin-specific protease 8 (Homo sapiens, UniProt Q96LD8); type: functional
T4 sequence (Q96LD8 whole entry): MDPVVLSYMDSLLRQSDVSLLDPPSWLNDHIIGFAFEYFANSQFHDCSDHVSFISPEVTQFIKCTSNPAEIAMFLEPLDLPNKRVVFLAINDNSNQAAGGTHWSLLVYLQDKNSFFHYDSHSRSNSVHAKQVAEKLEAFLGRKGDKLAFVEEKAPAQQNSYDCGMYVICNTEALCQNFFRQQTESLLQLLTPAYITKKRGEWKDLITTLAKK

[17] = target: T4, Sentrin-specific protease 8; type: functional; remark: listed apart in the source
[18] = target: T5, Mannose-6-phosphate isomerase (Homo sapiens, UniProt P34949); experiment: human PMI inhibitors, high substrate, primary screen, biochemical, fluorescence intensity, high mannose 6-phosphate (AID 1220)
T5 sequence (P34949 whole entry): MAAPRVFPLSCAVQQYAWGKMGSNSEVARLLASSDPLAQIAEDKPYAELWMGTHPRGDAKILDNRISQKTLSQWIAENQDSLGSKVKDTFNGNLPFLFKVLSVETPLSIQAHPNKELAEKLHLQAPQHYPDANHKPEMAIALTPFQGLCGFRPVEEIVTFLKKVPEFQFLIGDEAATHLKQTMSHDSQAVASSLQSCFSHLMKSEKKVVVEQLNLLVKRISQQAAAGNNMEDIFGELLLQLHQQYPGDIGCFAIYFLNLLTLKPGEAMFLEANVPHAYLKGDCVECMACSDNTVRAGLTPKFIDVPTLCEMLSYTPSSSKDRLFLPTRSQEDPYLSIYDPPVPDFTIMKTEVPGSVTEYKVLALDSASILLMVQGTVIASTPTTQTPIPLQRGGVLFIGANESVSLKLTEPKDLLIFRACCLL

[19] = target: DNA dC->dU-editing enzyme APOBEC-3G (Homo sapiens, UniProt Q9HC16); experiment: Dose Response confirmation of small molecule APOBEC3G DNA Deaminase Inhibitors via a fluorescence-based single-stranded DNA deaminase assay. [Related pubchem assays (depositor defined):AID493012, AID493028]; type: functional
Chain of DNA dC->dU-editing enzyme APOBEC-3G (Q9HC16 whole entry): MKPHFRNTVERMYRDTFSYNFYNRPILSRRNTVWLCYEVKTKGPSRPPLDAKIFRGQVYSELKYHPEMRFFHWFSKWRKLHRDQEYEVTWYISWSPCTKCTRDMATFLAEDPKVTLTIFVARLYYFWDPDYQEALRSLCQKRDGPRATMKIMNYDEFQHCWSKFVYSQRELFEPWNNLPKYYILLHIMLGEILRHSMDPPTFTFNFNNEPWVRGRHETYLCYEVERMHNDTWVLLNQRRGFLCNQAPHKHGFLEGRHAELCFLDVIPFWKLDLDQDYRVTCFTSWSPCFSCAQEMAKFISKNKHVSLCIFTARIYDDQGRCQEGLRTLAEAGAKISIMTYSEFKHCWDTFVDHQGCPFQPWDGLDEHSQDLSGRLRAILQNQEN

Chain of Cytochrome P450 2D6 (P10635 whole entry): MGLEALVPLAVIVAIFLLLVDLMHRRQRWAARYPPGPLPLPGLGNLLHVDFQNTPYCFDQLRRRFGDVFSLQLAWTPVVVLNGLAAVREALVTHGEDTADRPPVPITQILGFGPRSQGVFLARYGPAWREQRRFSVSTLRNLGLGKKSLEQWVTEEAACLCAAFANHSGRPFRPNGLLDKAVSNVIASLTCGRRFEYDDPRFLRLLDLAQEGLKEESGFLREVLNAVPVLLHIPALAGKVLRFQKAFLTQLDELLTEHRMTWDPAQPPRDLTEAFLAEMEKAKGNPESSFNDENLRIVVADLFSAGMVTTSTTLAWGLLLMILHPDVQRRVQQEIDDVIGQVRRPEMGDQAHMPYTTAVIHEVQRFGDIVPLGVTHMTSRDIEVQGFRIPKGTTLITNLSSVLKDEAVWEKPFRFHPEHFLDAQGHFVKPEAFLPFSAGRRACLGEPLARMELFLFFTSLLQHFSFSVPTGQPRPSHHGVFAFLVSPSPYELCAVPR
Chain of Cytochrome P450 2C19 (P33261 whole entry): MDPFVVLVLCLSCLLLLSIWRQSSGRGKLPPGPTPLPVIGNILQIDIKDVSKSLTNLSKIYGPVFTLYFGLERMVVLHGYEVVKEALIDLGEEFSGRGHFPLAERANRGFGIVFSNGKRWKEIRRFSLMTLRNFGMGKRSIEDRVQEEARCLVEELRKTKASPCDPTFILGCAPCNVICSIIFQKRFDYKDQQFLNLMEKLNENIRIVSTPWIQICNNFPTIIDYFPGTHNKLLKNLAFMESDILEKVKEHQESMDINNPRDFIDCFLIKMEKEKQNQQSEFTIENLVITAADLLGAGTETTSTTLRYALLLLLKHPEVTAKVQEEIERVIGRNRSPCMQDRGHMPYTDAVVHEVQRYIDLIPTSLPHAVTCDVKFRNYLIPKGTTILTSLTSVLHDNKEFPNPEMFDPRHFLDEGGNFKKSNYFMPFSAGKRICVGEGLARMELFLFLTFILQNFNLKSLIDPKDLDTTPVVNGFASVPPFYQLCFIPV
Chain of ATP-dependent molecular chaperone HSP82 (C4YTQ8 whole entry): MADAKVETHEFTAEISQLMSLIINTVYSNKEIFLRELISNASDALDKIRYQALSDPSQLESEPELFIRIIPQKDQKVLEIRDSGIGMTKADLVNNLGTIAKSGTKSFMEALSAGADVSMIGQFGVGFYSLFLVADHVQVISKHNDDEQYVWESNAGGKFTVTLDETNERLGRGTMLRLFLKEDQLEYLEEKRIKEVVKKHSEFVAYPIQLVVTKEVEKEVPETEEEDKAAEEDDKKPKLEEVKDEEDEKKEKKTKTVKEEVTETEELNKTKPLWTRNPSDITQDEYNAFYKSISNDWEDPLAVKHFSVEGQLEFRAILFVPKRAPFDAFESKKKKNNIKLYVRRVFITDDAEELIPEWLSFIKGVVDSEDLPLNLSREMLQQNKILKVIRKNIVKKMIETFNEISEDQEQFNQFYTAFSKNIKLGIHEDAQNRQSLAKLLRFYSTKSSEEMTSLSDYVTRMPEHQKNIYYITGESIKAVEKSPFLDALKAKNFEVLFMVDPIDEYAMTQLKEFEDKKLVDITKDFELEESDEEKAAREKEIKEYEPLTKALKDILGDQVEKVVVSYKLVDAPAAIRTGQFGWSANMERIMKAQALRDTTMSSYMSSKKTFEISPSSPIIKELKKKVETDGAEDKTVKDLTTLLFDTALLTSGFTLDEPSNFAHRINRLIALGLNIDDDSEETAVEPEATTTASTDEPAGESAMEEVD
Chain of Nonstructural protein 1 (Q194T2 whole entry): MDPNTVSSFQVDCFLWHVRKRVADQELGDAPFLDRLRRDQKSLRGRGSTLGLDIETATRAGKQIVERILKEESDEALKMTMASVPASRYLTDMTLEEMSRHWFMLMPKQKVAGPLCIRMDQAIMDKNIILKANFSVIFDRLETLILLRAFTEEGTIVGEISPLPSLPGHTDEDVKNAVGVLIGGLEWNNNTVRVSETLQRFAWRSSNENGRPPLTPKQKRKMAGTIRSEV

Cc1cccc(OCCn2c(S(=O)(=O)O)nc3ccccc32)c1
AC50 [1]: inconclusive

NC1(C(=O)O)CCCCC1
AC50 [2]: inconclusive | AC50 [1]: inconclusive

CC(=O)Nc1ccccc1C(=O)C(=O)O
AC50 ([2]; read-out: AC50): 10 µM (inconclusive) | AC50 [1]: inconclusive

O=Cc1ccc(O)c2ncccc12
EC50 [3]: 16.1 µM (active) | EC50 [4]: 4.43 µM (active) | EC50 [5]: 33.7 µM (active) | EC50 [6]: 0.333 µM (active) | EC50 [7]: 3.93 µM (active) | EC50 [8]: 21.1 µM (inconclusive) | EC50 [9]: 16.6 µM (active) | IC50 [10]: 1.71 µM (active) | AC50 [11]: 0.552 µM (active) | EC50 [12]: 0.284 µM (active) | EC50 [13]: 11.2 µM (active)

C=CCn1c(C)cc(C2=NN=C(NC(C)(C)C)SC2)c1C
AC50 [14]: 4.09 µM (active)

CC(=O)C1=C(C)NC2(O)c3ccccc3C(=O)C12O (centres undefined)
EC50 [15]: > 260 µM (inactive) | IC50 [16]: 11.1 µM (active) | IC50 [17]: 22.4 µM (active)

Cc1cc(N2C(=O)Cc3ccccc3C2=O)ccc1C(C)C
IC50 [16]: > 100 µM (inactive) | IC50 [17]: 4.5 µM (active)

O=C(NC1=NC(=O)C(F)(C(F)(F)F)S1)NC1CCCCC1 (centres undefined)
IC50 [18]: > 50 µM (not active) | IC50 [19]: 32.7 µM (active)
